The NIST ThermoML archive (doi:10.1016/j.tca.2010.07.027)

What was measured:
[1] = Liquid; for speed of sound / mass density: 101.33 kPa; for speed of sound: Linear variable-path acoustic interferometer; for mass density: Pycnometric method; for vapor or sublimation pressure: Closed cell (Static) method
[2] = xn = mol fraction of the nth substance listed; conditions: 308.15 K, Liquid; for speed of sound: Frequency=2 MHz, Linear variable-path acoustic interferometer
[3] = excess molar enthalpy (molar enthalpy of mixing); xn = mol fraction of the nth substance listed; conditions: 308.15 K, Liquid, 2-drop calorimeter

CNc1ccccc1 [N-methylaniline]
[1]
Conditions | mass density [kg/m3] | speed of sound [m/s] | vapor or sublimation pressure [kPa]
298.15 K | 982.4 | 1572 | –
308.15 K | – | – | 0.0667

Nc1ccccc1 [aniline] + C1COCO1
Conditions | excess molar enthalpy [kcal/mol] | excess molar volume [m3/mol] | speed of sound [m/s]
[2], x2 = 0.0789 | – | -1.34e-07 | –
[2], x2 = 0.0812 | – | – | 1587
[2], x2 = 0.1132 | – | -1.88e-07 | –
[2], x2 = 0.1413 | – | – | 1576
[2], x2 = 0.2204 | – | -3.3e-07 | –
[2], x2 = 0.2212 | – | – | 1557
[2], x2 = 0.2916 | – | – | 1539
[2], x2 = 0.3111 | – | -4.28e-07 | –
[2], x2 = 0.3488 | – | – | 1523
[2], x2 = 0.4281 | – | -4.97e-07 | –
[2], x2 = 0.4621 | – | – | 1489
[2], x2 = 0.4916 | – | -5.16e-07 | –
[2], x2 = 0.5219 | – | – | 1470
[2], x2 = 0.523 | – | -5.17e-07 | –
[2], x2 = 0.5928 | – | – | 1447
[2], x2 = 0.5999 | – | -4.93e-07 | –
[2], x2 = 0.6342 | – | -4.77e-07 | –
[2], x2 = 0.6414 | – | – | 1431
[2], x2 = 0.7114 | – | -4.18e-07 | –
[2], x2 = 0.7131 | – | – | 1406
[2], x2 = 0.8001 | – | – | 1374
[2], x2 = 0.8202 | – | -2.94e-07 | –
[2], x2 = 0.8715 | – | – | 1347
[2], x2 = 0.8913 | – | -1.9e-07 | –
[2], x2 = 0.9213 | – | – | 1327
[2], x2 = 0.9233 | – | -1.38e-07 | –
[2], x2 = 0.9711 | – | – | 1307
[2], x2 = 0.9718 | – | -5.25e-08 | –
[3], x2 = 0.0613 | -0.0386 | – | –
[3], x2 = 0.1622 | -0.0988 | – | –
[3], x2 = 0.2241 | -0.131 | – | –
[3], x2 = 0.2774 | -0.156 | – | –
[3], x2 = 0.3503 | -0.184 | – | –
[3], x2 = 0.4231 | -0.203 | – | –
[3], x2 = 0.5511 | -0.215 | – | –
[3], x2 = 0.5812 | -0.214 | – | –
[3], x2 = 0.6223 | -0.209 | – | –
[3], x2 = 0.6816 | -0.195 | – | –
[3], x2 = 0.7519 | -0.171 | – | –
[3], x2 = 0.8127 | -0.14 | – | –
[3], x2 = 0.8928 | -0.0887 | – | –
[3], x2 = 0.9514 | -0.0435 | – | –

Nc1ccccc1 [aniline]
[1], 298.15 K
Conditions | mass density [kg/m3] | speed of sound [m/s] | vapor or sublimation pressure [kPa]
– | 1017.2 | 1635 | 0.0933

C1COCO1 [1,3-dioxolane]
[1]
Conditions | mass density [kg/m3] | speed of sound [m/s] | vapor or sublimation pressure [kPa]
298.15 K | 1047.2 | 1388 | –
308.15 K | – | – | 21.5

CNc1ccccc1 [N-methylaniline] + C1COCO1
Conditions | excess molar enthalpy [kcal/mol] | excess molar volume [m3/mol] | speed of sound [m/s]
[2], x2 = 0.0415 | – | – | 1521
[2], x2 = 0.0709 | – | -1.8e-08 | –
[2], x2 = 0.1211 | – | – | 1511
[2], x2 = 0.1771 | – | -4.5e-08 | –
[2], x2 = 0.2001 | – | – | 1501
[2], x2 = 0.2387 | – | -6.3e-08 | –
[2], x2 = 0.2754 | – | – | 1490
[2], x2 = 0.2958 | – | -8e-08 | –
[2], x2 = 0.3349 | – | -8.8e-08 | –
[2], x2 = 0.3512 | – | – | 1477
[2], x2 = 0.3916 | – | -9.5e-08 | –
[2], x2 = 0.4222 | – | – | 1463
[2], x2 = 0.4361 | – | -1.02e-07 | –
[2], x2 = 0.4912 | – | -1.1e-07 | –
[2], x2 = 0.4943 | – | – | 1447
[2], x2 = 0.5421 | – | – | 1436
[2], x2 = 0.5531 | – | -1.12e-07 | –
[2], x2 = 0.6213 | – | – | 1415
[2], x2 = 0.6272 | – | -1.04e-07 | –
[2], x2 = 0.6992 | – | -9.3e-08 | –
[2], x2 = 0.7003 | – | – | 1393
[2], x2 = 0.7417 | – | -8.8e-08 | –
[2], x2 = 0.7832 | – | – | 1367
[2], x2 = 0.8545 | – | -5.1e-08 | –
[2], x2 = 0.8632 | – | – | 1341
[2], x2 = 0.9011 | – | – | 1329
[2], x2 = 0.9213 | – | -3e-08 | –
[2], x2 = 0.9632 | – | – | 1307
[3], x2 = 0.0853 | -0.0914 | – | –
[3], x2 = 0.1423 | -0.13 | – | –
[3], x2 = 0.2533 | -0.162 | – | –
[3], x2 = 0.3765 | -0.156 | – | –
[3], x2 = 0.4531 | -0.141 | – | –
[3], x2 = 0.5123 | -0.127 | – | –
[3], x2 = 0.5976 | -0.105 | – | –
[3], x2 = 0.6432 | -0.0927 | – | –
[3], x2 = 0.7123 | -0.0749 | – | –
[3], x2 = 0.7943 | -0.0561 | – | –
[3], x2 = 0.8543 | -0.0409 | – | –
[3], x2 = 0.8912 | -0.0321 | – | –
[3], x2 = 0.9321 | -0.0223 | – | –
[3], x2 = 0.9721 | -0.00894 | – | –

Cc1ccccc1N [2-methylaniline]
[1]
Conditions | mass density [kg/m3] | speed of sound [m/s] | vapor or sublimation pressure [kPa]
298.15 K | 994.2 | 1602 | –
308.15 K | – | – | 0.1067

Cc1ccccc1N [2-methylaniline] + C1COCO1
Conditions | excess molar enthalpy [kcal/mol] | excess molar volume [m3/mol] | speed of sound [m/s]
[2], x2 = 0.0549 | – | -8.4e-08 | –
[2], x2 = 0.1122 | – | – | 1539
[2], x2 = 0.1721 | – | -2.51e-07 | –
[2], x2 = 0.1891 | – | – | 1526
[2], x2 = 0.2239 | – | -3.12e-07 | –
[2], x2 = 0.2413 | – | – | 1516
[2], x2 = 0.2769 | – | -3.75e-07 | –
[2], x2 = 0.2911 | – | – | 1506
[2], x2 = 0.3212 | – | – | 1500
[2], x2 = 0.351 | – | -4.43e-07 | –
[2], x2 = 0.4011 | – | – | 1484
[2], x2 = 0.4217 | – | -4.86e-07 | –
[2], x2 = 0.4513 | – | – | 1473
[2], x2 = 0.5518 | – | -5.12e-07 | –
[2], x2 = 0.5651 | – | – | 1444
[2], x2 = 0.5889 | – | -5.12e-07 | –
[2], x2 = 0.6218 | – | -4.97e-07 | –
[2], x2 = 0.6637 | – | – | 1415
[2], x2 = 0.6831 | – | -4.66e-07 | –
[2], x2 = 0.6989 | – | – | 1404
[2], x2 = 0.7512 | – | – | 1386
[2], x2 = 0.7523 | – | -4.07e-07 | –
[2], x2 = 0.8147 | – | -3.28e-07 | –
[2], x2 = 0.8319 | – | – | 1358
[2], x2 = 0.8916 | – | -2.16e-07 | –
[2], x2 = 0.9071 | – | – | 1330
[2], x2 = 0.9407 | – | -1.23e-07 | –
[2], x2 = 0.9713 | – | – | 1306
[3], x2 = 0.0754 | -0.0527 | – | –
[3], x2 = 0.1632 | -0.111 | – | –
[3], x2 = 0.2424 | -0.155 | – | –
[3], x2 = 0.3213 | -0.188 | – | –
[3], x2 = 0.4001 | -0.209 | – | –
[3], x2 = 0.4843 | -0.217 | – | –
[3], x2 = 0.5655 | -0.208 | – | –
[3], x2 = 0.6112 | -0.198 | – | –
[3], x2 = 0.6979 | -0.166 | – | –
[3], x2 = 0.7432 | -0.145 | – | –
[3], x2 = 0.808 | -0.112 | – | –
[3], x2 = 0.8831 | -0.0672 | – | –
[3], x2 = 0.9311 | -0.039 | – | –
[3], x2 = 0.9621 | -0.0207 | – | –
